Experiments:
Test in all cases: cells
[1] = tested on: J82; assay type: functional, cell-based, Homo sapiens; conditions: Homo sapiens, J82;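 also: growth inhibition of J82 cells, read out with a cell viability assay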
Description: SANGER: Inhibition of human J82 cell growth in a cell viability assay.

[2] = tested on: HSC-2; assay type: functional, cell-based, Homo sapiens; conditions: Homo sapiens, HSC-2;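 also: growth inhibition of human HSC-2 cells, read out by a cell viability assay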
Description: SANGER: Inhibition of human HSC-2 cell growth in a cell viability assay.

[3] = tested on: MDA-MB-361; assay type: functional, cell-based, Homo sapiens; conditions: Homo sapiens, MDA-MB-361
[4] = tested on: MKN-45; assay type: functional, cell-based, Homo sapiens; conditions: Homo sapiens, MKN-45;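 also: growth inhibition of human MKN-45 cells, measured with a cell viability assay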
Description: SANGER: Inhibition of human MKN45 cell growth in a cell viability assay.

[5] = tested on: TALL-1; assay type: functional, cell-based, Homo sapiens; conditions: Homo sapiens, TALL-1;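 also: growth inhibition of cultured human TALL-1 cells, read out by a cell viability assay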
Description: SANGER: Inhibition of human TALL-1 cell growth in a cell viability assay.

[6] = tested on: SW1417; assay type: functional, cell-based, Homo sapiens; conditions: Homo sapiens, SW1417;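 also: growth inhibition of human SW1417 cells, read out with a cell viability assay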
Description: SANGER: Inhibition of human SW1417 cell growth in a cell viability assay.

[7] = tested on: NCI-H2228; assay type: functional, cell-based, Homo sapiens; conditions: Homo sapiens, NCI-H2228;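 also: growth inhibition of human NCI-H2228 cells, read out by a cell viability assay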
Description: SANGER: Inhibition of human NCI-H2228 cell growth in a cell viability assay.

[8] = tested on: NCI-H1563; assay type: functional, cell-based, Homo sapiens; conditions: Homo sapiens, NCI-H1563;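 also: growth inhibition of human NCI-H1563 cells, read out with a cell viability assay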
Description: SANGER: Inhibition of human NCI-H1563 cell growth in a cell viability assay.

[9] = tested on: KYSE-180; assay type: functional, cell-based, Homo sapiens; conditions: Homo sapiens, KYSE-180;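 also: growth inhibition of KYSE-180 cells, read out with a cell viability assay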
Description: SANGER: Inhibition of human KYSE-180 cell growth in a cell viability assay.

[10] = tested on: H4; assay type: functional, cell-based, Homo sapiens; conditions: Homo sapiens, H4
Description: SANGER: Inhibition of human H4 cell growth in a cell viability assay.

[11] = tested on: MONO-MAC-6; assay type: functional, cell-based, Homo sapiens; conditions: Homo sapiens, MONO-MAC-6;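 also: cell viability assay measuring growth inhibition of human MONO-MAC-6 cells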
Description: SANGER: Inhibition of human MONO-MAC-6 cell growth in a cell viability assay.

[12] = tested on: SK-HEP1; assay type: functional, cell-based, Homo sapiens, SK-HEP-1; conditions: Homo sapiens, SK-HEP1;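 also: cell viability readout used to quantify reduction in proliferation of human SK-HEP-1 cells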
Description: SANGER: Inhibition of human SK-HEP-1 cell growth in a cell viability assay.

[13] = tested on: VMRC-RCZ; assay type: functional, cell-based, Homo sapiens; conditions: Homo sapiens, VMRC-RCZ;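 also: growth inhibition measured with a cell viability assay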
Description: SANGER: Inhibition of human VMRC-RCZ cell growth in a cell viability assay.

[14] = tested on: HuP-T4; assay type: functional, cell-based, Homo sapiens; conditions: Homo sapiens, HuP-T4;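 also: cell viability assay measuring how much HuP-T4 cell growth is inhibited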
Description: SANGER: Inhibition of human HuP-T4 cell growth in a cell viability assay.

[15] = tested on: SNU-387; assay type: functional, cell-based, Homo sapiens; conditions: Homo sapiens, SNU-387
Description: SANGER: Inhibition of human SNU-387 cell growth in a cell viability assay.

[16] = tested on: DOK; assay type: functional, cell-based, Homo sapiens; conditions: Homo sapiens, DOK;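 also: cell viability assay read-out, values reflect inhibition of cell growth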
Description: SANGER: Inhibition of human DOK cell growth in a cell viability assay.

[17] = tested on: HCC1569; assay type: functional, cell-based, Homo sapiens; conditions: Homo sapiens, HCC1569;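 also: growth inhibition of human HCC1569 cells, read out with a cell viability assay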
Description: SANGER: Inhibition of human HCC1569 cell growth in a cell viability assay.

[18] = tested on: 8505C; assay type: functional, cell-based, Homo sapiens; conditions: Homo sapiens, 8505C
Description: SANGER: Inhibition of human 8505C cell growth in a cell viability assay.

[19] = tested on: CAL-62; assay type: functional, cell-based, Homo sapiens; conditions: Homo sapiens, CAL-62;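 also: growth inhibition of CAL-62 cells, read out with a cell viability assay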
Description: SANGER: Inhibition of human CAL-62 cell growth in a cell viability assay.

[20] = tested on: MCF7; assay type: functional, cell-based, Homo sapiens; conditions: Homo sapiens, MCF7;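 also: growth inhibition of human MCF7 cells, read out with a cell viability assay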
Description: SANGER: Inhibition of human MCF7 cell growth in a cell viability assay.

[21] = tested on: A2058; assay type: functional, cell-based, Homo sapiens; conditions: Homo sapiens, A2058;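 also: reduction of A2058 cell growth, read out with a viability assay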
Description: SANGER: Inhibition of human A2058 cell growth in a cell viability assay.

[22] = tested on: NCI-H1703; assay type: functional, cell-based, Homo sapiens; conditions: Homo sapiens, NCI-H1703;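 also: growth inhibition of NCI-H1703 cells, read out via a cell viability assay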
Description: SANGER: Inhibition of human NCI-H1703 cell growth in a cell viability assay.

[23] = tested on: SK-OV-3; assay type: functional, cell-based, Homo sapiens; conditions: Homo sapiens, SK-OV-3;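 also: growth inhibition of SK-OV-3 human cells, read out with a cell viability assay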
Description: SANGER: Inhibition of human SK-OV-3 cell growth in a cell viability assay.

[24] = tested on: BCPAP; assay type: functional, cell-based, Homo sapiens; conditions: Homo sapiens, BCPAP;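 also: growth inhibition of BCPAP cells, read out in a cell viability assay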
Description: SANGER: Inhibition of human BCPAP cell growth in a cell viability assay.

[25] = tested on: RERF-LC-MS; assay type: functional, cell-based, Homo sapiens; conditions: Homo sapiens, RERF-LC-MS;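 also: growth inhibition of human RERF-LC-MS cells, read out by a cell viability assay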
Description: SANGER: Inhibition of human RERF-LC-MS cell growth in a cell viability assay.

[26] = tested on: C32; assay type: functional, cell-based, Homo sapiens; conditions: Homo sapiens, C32;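 also: cell viability assay, with IC50 reflecting inhibition of C32 cell growth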
Description: SANGER: Inhibition of human C32 cell growth in a cell viability assay.

[27] = tested on: LOUCY; assay type: functional, cell-based, Homo sapiens; conditions: Homo sapiens, LOUCY;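 also: growth inhibition of human LOUCY cells, read out with a cell viability assay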
Description: SANGER: Inhibition of human LOUCY cell growth in a cell viability assay.

[28] = tested on: SK-MEL-24; assay type: functional, cell-based, Homo sapiens; conditions: Homo sapiens, SK-MEL-24;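 also: growth inhibition read out by a cell viability assay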
Description: SANGER: Inhibition of human SK-MEL-24 cell growth in a cell viability assay.

[29] = tested on: SK-MEL3; assay type: functional, cell-based, Homo sapiens, SK-MEL-3; conditions: Homo sapiens, SK-MEL3;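 also: growth inhibition of human SK-MEL-3 cells, read out with a cell viability assay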
Description: SANGER: Inhibition of human SK-MEL-3 cell growth in a cell viability assay.

[30] = tested on: Capan-2; assay type: functional, cell-based, Homo sapiens; conditions: Homo sapiens, Capan-2;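 also: Capan-2 cell growth inhibition, read out with a viability assay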
Description: SANGER: Inhibition of human Capan-2 cell growth in a cell viability assay.

[31] = tested on: NALM-6; assay type: functional, cell-based, Homo sapiens; conditions: Homo sapiens, NALM-6;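 also: growth inhibition of NALM-6 cells, read out with a cell viability assay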
Description: SANGER: Inhibition of human NALM-6 cell growth in a cell viability assay.

[32] = tested on: TCC-SUP; assay type: functional, cell-based, Homo sapiens; conditions: Homo sapiens, TCC-SUP;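 also: growth inhibition of TCC-SUP cells, read out with a cell viability assay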
Description: SANGER: Inhibition of human TCCSUP cell growth in a cell viability assay.

[33] = tested on: HuO-3N1; assay type: functional, cell-based, Homo sapiens; conditions: Homo sapiens, HuO-3N1;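 also: cell viability readout used to measure how strongly compounds suppress proliferation of human HuO-3N1 cells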
Description: SANGER: Inhibition of human HuO-3N1 cell growth in a cell viability assay.

[34] = tested on: LC4-1; assay type: functional, cell-based, Homo sapiens; conditions: Homo sapiens, LC4-1;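 also: growth inhibition of LC4-1 cells, read out with a cell viability assay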
Description: SANGER: Inhibition of human LC4-1 cell growth in a cell viability assay.

[35] = tested on: COR-L23; assay type: functional, cell-based, Homo sapiens; conditions: Homo sapiens, COR-L23;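 also: cell viability assay measuring how strongly compounds suppress growth of COR-L23 cells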
Description: SANGER: Inhibition of human COR-L23 cell growth in a cell viability assay.

[36] = tested on: UACC-893; assay type: functional, cell-based, Homo sapiens; conditions: Homo sapiens, UACC-893
Description: SANGER: Inhibition of human UACC-893 cell growth in a cell viability assay.

[37] = tested on: NUGC-3; assay type: functional, cell-based, Homo sapiens; conditions: Homo sapiens, NUGC-3;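 also: growth inhibition of human NUGC-3 cells, read out with a cell viability assay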
Description: SANGER: Inhibition of human NUGC-3 cell growth in a cell viability assay.

[38] = tested on: SIMA; assay type: functional, cell-based, Homo sapiens; conditions: Homo sapiens, SIMA;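 also: growth inhibition of SIMA cells, measured with a cell viability readout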
Description: SANGER: Inhibition of human SIMA cell growth in a cell viability assay.

[39] = tested on: HMV-2 cell line; assay type: functional, cell-based, Homo sapiens; conditions: Homo sapiens, HMV-2;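 also: growth inhibition of HMV-II cells, read out with a cell viability assay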
Description: SANGER: Inhibition of human HMV-II cell growth in a cell viability assay.

[40] = tested on: CAL-148; assay type: functional, cell-based, Homo sapiens; conditions: Homo sapiens, CAL-148
Description: SANGER: Inhibition of human CAL-148 cell growth in a cell viability assay.

[41] = tested on: ACHN; assay type: functional, cell-based, Homo sapiens; conditions: Homo sapiens, ACHN;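 also: cell viability read-out used to gauge how strongly growth of human ACHN cells is suppressed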
Description: SANGER: Inhibition of human ACHN cell growth in a cell viability assay.

[42] = tested on: RT-112; assay type: functional, cell-based, Homo sapiens; conditions: Homo sapiens, RT-112
Description: SANGER: Inhibition of human RT-112 cell growth in a cell viability assay.

[43] = tested on: Ca-Ski; assay type: functional, cell-based, Homo sapiens; conditions: Homo sapiens, Ca-Ski;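 also: cell viability assay measuring inhibition of Ca-Ski cell growth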
Description: SANGER: Inhibition of human Ca-Ski cell growth in a cell viability assay.

[44] = tested on: HT-1080; assay type: functional, cell-based, Homo sapiens; conditions: Homo sapiens, HT-1080
Description: SANGER: Inhibition of human HT-1080 cell growth in a cell viability assay.

[45] = tested on: SK-MM-2; assay type: functional, cell-based, Homo sapiens; conditions: Homo sapiens, SK-MM-2;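 also: growth inhibition of human SK-MM-2 cells, read out with a cell viability assay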
Description: SANGER: Inhibition of human SK-MM-2 cell growth in a cell viability assay.

[46] = tested on: MEL-HO; assay type: functional, cell-based, Homo sapiens; conditions: Homo sapiens, MEL-HO
Description: SANGER: Inhibition of human MEL-HO cell growth in a cell viability assay.

O=C(O)c1ccc(-c2c[nH]c3ncc(-c4ccccc4)cc23)cc1C1CCCC1 [GSK-650394]
IC50 [1]: 8.2 µM
IC50 [2]: > 16 µM
IC50 [3]: > 16 µM
IC50 [4]: > 16 µM
IC50 [5]: > 16 µM
IC50 [6]: > 16 µM
IC50 [7]: 4.64 µM
IC50 [8]: > 16 µM
IC50 [9]: 2.06 µM
IC50 [10]: > 16 µM
IC50 [11]: 1.18 µM
IC50 [12]: 6.34 µM
IC50 [13]: > 16 µM
IC50 [14]: 8.5 µM
IC50 [15]: > 16 µM
IC50 [16]: > 16 µM
IC50 [17]: > 16 µM
IC50 [18]: 7.78 µM
IC50 [19]: 4.77 µM
IC50 [20]: 1.82 µM
IC50 [21]: 13.5 µM
IC50 [22]: > 16 µM
IC50 [23]: > 16 µM
IC50 [24]: 13 µM
IC50 [25]: > 16 µM
IC50 [26]: > 16 µM
IC50 [27]: > 16 µM
IC50 [28]: > 16 µM
IC50 [29]: > 16 µM
IC50 [30]: > 16 µM
IC50 [31]: 9.73 µM
IC50 [32]: > 16 µM
IC50 [33]: > 16 µM
IC50 [34]: > 16 µM
IC50 [35]: 4.76 µM
IC50 [36]: > 16 µM
IC50 [37]: > 16 µM
IC50 [38]: > 16 µM
IC50 [39]: 7.51 µM
IC50 [40]: > 16 µM
IC50 [41]: 10.8 µM
IC50 [42]: 1.03 µM
IC50 [43]: > 16 µM
IC50 [44]: 5.49 µM
IC50 [45]: > 16 µM
IC50 [46]: > 16 µM

C=C(c1ccc(C(=O)O)cc1)c1cc2c(cc1C)C(C)(C)CCC2(C)C [BEXAROTENE]
IC50 [1]: > 8 µM
IC50 [2]: > 8 µM
IC50 [3]: > 8 µM
IC50 [4]: > 8 µM
IC50 [5]: > 8 µM
IC50 [6]: > 8 µM
IC50 [7]: > 8 µM
IC50 [8]: > 8 µM
IC50 [9]: 5.03 µM
IC50 [10]: > 8 µM
IC50 [11]: > 8 µM
IC50 [12]: > 8 µM
IC50 [13]: > 8 µM
IC50 [14]: > 8 µM
IC50 [15]: > 8 µM
IC50 [16]: > 8 µM
IC50 [17]: > 8 µM
IC50 [18]: > 8 µM
IC50 [19]: > 8 µM
IC50 [20]: > 8 µM
IC50 [21]: > 8 µM
IC50 [22]: > 8 µM
IC50 [23]: > 8 µM
IC50 [24]: > 8 µM
IC50 [25]: > 8 µM
IC50 [26]: > 8 µM
IC50 [27]: > 8 µM
IC50 [28]: > 8 µM
IC50 [29]: > 8 µM
IC50 [30]: > 8 µM
IC50 [31]: > 8 µM
IC50 [32]: > 8 µM
IC50 [33]: > 8 µM
IC50 [34]: > 8 µM
IC50 [35]: > 8 µM
IC50 [36]: > 8 µM
IC50 [37]: > 8 µM
IC50 [38]: > 8 µM
IC50 [39]: > 8 µM
IC50 [40]: > 8 µM
IC50 [41]: > 8 µM
IC50 [42]: > 8 µM
IC50 [43]: > 8 µM
IC50 [44]: > 8 µM
IC50 [45]: > 8 µM
IC50 [46]: 0.531 µM

COc1cccc2c1C(=O)c1c(O)c3c(c(O)c1C2=O)C[C@@](O)(C(=O)CO)C[C@@H]3O[C@H]1C[C@H](N)[C@H](O)[C@H](C)O1 [DOXORUBICIN]
IC50 [1]: 0.0213 µM
IC50 [2]: 0.0268 µM
IC50 [3]: 0.293 µM
IC50 [4]: 0.0815 µM
IC50 [5]: > 1.02 µM
IC50 [6]: 0.363 µM
IC50 [7]: 0.0135 µM
IC50 [8]: 0.556 µM
IC50 [9]: 0.0598 µM
IC50 [10]: 0.0716 µM
IC50 [11]: 0.154 µM
IC50 [12]: 0.0259 µM
IC50 [13]: 0.0933 µM
IC50 [14]: 0.0522 µM
IC50 [15]: 0.236 µM
IC50 [16]: 1.02 µM
IC50 [17]: 0.109 µM
IC50 [18]: 0.0196 µM
IC50 [19]: 0.0328 µM
IC50 [20]: 0.0117 µM
IC50 [21]: 0.0177 µM
IC50 [22]: 0.126 µM
IC50 [23]: 0.0501 µM
IC50 [24]: 0.0525 µM
IC50 [25]: 0.425 µM
IC50 [26]: > 1.02 µM
IC50 [27]: 0.0213 µM
IC50 [28]: 0.914 µM
IC50 [29]: 0.148 µM
IC50 [30]: 0.898 µM
IC50 [31]: 0.0186 µM
IC50 [32]: > 1.02 µM
IC50 [33]: > 1.02 µM
IC50 [34]: 0.241 µM
IC50 [35]: 0.032 µM
IC50 [36]: 0.522 µM
IC50 [37]: 0.0452 µM
IC50 [38]: 0.382 µM
IC50 [39]: 0.0226 µM
IC50 [40]: 0.0269 µM
IC50 [41]: 0.0493 µM
IC50 [42]: 0.0329 µM
IC50 [43]: 0.0448 µM
IC50 [44]: 0.0148 µM
IC50 [45]: 0.942 µM
IC50 [46]: 0.0183 µM
